Assay results: the supplement of paper PMC10307832

Legend:
Assay in all cases: relative viability (nuclei count vs DMSO), 5 days (fraction); higher = more cells survive
[1] = compound: CCn1c(-c2nonc2N)nc2cnc(Oc3cccc(NC(=O)c4ccc(OCCN5CCOCC5)cc4)c3)cc21 + C[C@]1(O)C[C@@H](c2nc(-c3ccc4ccc(-c5ccccc5)nc4c3)c3c(N)nccn32)C1 [Linsitinib] (partner 1 µM)
Outline: (§1)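 Five library-drug doses in √10 steps were combined with a fixed anchor-drug dose, or a single drug was given alone, by pin tool to lung cancer cell lines in 1536-well plates the day after seeding. Nuclei were stained and counted after 5 days. Relative viability is the nuclei count in treated wells over that in vehicle wells, taken as the median of duplicate plates.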

Mirin + Luminespib = compound: N=C1NC(=O)/C(=C/c2ccc(O)cc2)S1 [Mirin] + CCNC(=O)c1noc(-c2cc(C(C)C)c(O)cc2O)c1-c1ccc(CN2CCOCC2)cc1 [Luminespib] (partner 0.01 µM)
Outline: as §1

Mirin + OSI-027 = compound: N=C1NC(=O)/C(=C/c2ccc(O)cc2)S1 [Mirin] + COc1cccc2cc(-c3nc([C@H]4CC[C@H](C(=O)O)CC4)n4ncnc(N)c34)[nH]c12 [OSI-027] (partner 0.5 µM)
Outline: as §1

Mirin + Pemetrexed = compound: N=C1NC(=O)/C(=C/c2ccc(O)cc2)S1 [Mirin] + Nc1nc2[nH]cc(CCc3ccc(C(=O)N[C@@H](CCC(=O)O)C(=O)O)cc3)c2c(=O)[nH]1 [Pemetrexed] (partner 0.2 µM)
Outline: as §1

Row | Cell Line | relative viability ([1]; first compound 0.04 µM) | relative viability ([1]; first compound 0.1265 µM) | relative viability ([1]; first compound 0.4 µM) | relative viability ([1]; first compound 1.265 µM) | relative viability ([1]; first compound 4 µM) | relative viability (Mirin + Luminespib; first compound 0.25 µM) | relative viability (Mirin + Luminespib; first compound 0.7906 µM) | relative viability (Mirin + Luminespib; first compound 2.5 µM) | relative viability (Mirin + Luminespib; first compound 7.906 µM) | relative viability (Mirin + Luminespib; first compound 25 µM) | relative viability (Mirin + OSI-027; first compound 0.25 µM) | relative viability (Mirin + OSI-027; first compound 0.7906 µM) | relative viability (Mirin + OSI-027; first compound 2.5 µM) | relative viability (Mirin + OSI-027; first compound 7.906 µM) | relative viability (Mirin + OSI-027; first compound 25 µM) | relative viability (Mirin + Pemetrexed; first compound 0.25 µM) | relative viability (Mirin + Pemetrexed; first compound 0.7906 µM) | relative viability (Mirin + Pemetrexed; first compound 2.5 µM) | relative viability (Mirin + Pemetrexed; first compound 7.906 µM) | relative viability (Mirin + Pemetrexed; first compound 25 µM)
1 | NCI-H1734 | 1.06 | 0.796 | 0.807 | 0.648 | 0.485 | 0.191 | 0.182 | 0.21 | 0.208 | 0.217 | 0.636 | 0.574 | 0.525 | 0.548 | 0.488 | 0.441 | 0.44 | 0.414 | 0.355 | 0.346
2 | NCI-H1755 | 1.08 | 1.01 | 0.936 | 0.963 | 0.937 | 0.396 | 0.519 | 0.497 | 0.407 | 0.358 | 0.686 | 0.75 | 0.662 | 0.687 | 0.766 | 0.38 | 0.402 | 0.404 | 0.348 | 0.384
3 | NCI-H1792 | 0.65 | 0.572 |  | 0.423 | 0.512 | 0.34 | 0.461 | 0.438 |  | 0.423 | 0.724 | 0.746 | 0.745 |  | 0.634 | 0.772 | 0.653 | 1.15 | 0.708 | 0.844
4 | NCI-H1793 | 0.572 | 0.801 | 0.915 | 0.715 | 0.513 | 0.572 |  | 0.235 | 0.196 | 0.171 | 0.289 |  | 0.335 | 0.286 | 0.259 | 0.862 |  | 0.895 | 1.11 | 0.977
5 | NCI-H1915 | 1.16 | 1.11 | 1.07 | 1.07 | 1.06 | 0.776 |  | 0.783 | 0.676 | 0.77 | 0.586 |  | 0.625 | 0.579 | 0.6 | 0.469 | 0.484 | 0.504 | 0.434 | 0.433
6 | NCI-H1944 | 1.31 | 1.18 |  | 1.14 | 1.16 | 0.679 | 0.751 | 0.694 | 0.543 | 0.359 | 0.445 | 0.344 | 0.391 | 0.375 | 0.314 | 0.636 | 0.627 | 0.598 | 0.558 | 0.598
7 | NCI-H1975 | 0.833 | 0.65 | 0.895 | 0.385 | 0.293 | 0.201 | 0.254 | 0.16 | 0.306 | 0.125 | 0.783 | 0.733 | 0.692 | 0.82 | 0.626 | 0.324 | 0.256 | 0.272 | 0.274 | 0.252
8 | NCI-H1993 | 0.701 | 0.762 |  | 0.699 | 0.702 | 0.777 |  | 0.778 | 0.729 | 0.734 | 0.549 |  | 0.578 | 0.496 | 0.539 | 0.625 | 0.633 | 0.578 | 0.541 | 0.584
9 | NCI-H2009 | 1.01 | 0.99 | 0.999 | 0.701 | 0.423 | 0.983 | 1.15 | 1.02 | 0.925 | 1.07 | 0.646 | 0.662 | 0.706 | 0.413 | 0.522 | 1.05 | 1.11 | 1.01 | 0.964 | 1.16
10 | NCI-H2023 | 0.802 | 0.694 | 0.71 | 0.566 | 0.482 | 0.746 | 0.862 | 0.804 | 0.763 | 0.64 | 0.407 | 0.466 | 0.401 | 0.356 | 0.285 | 0.254 | 0.258 | 0.218 | 0.247 | 0.156
11 | NCI-H2085 | 1.02 | 0.9 | 0.756 | 0.792 | 0.683 | 0.422 | 0.343 | 0.46 | 0.473 | 0.453 | 0.873 | 0.674 | 0.748 | 0.603 | 0.584 | 0.919 | 1.03 | 0.932 | 0.925 | 0.932
12 | NCI-H2087 |  | 0.682 | 0.762 | 0.747 | 0.828 | 0.184 | 0.135 | 0.169 | 0.161 | 0.158 | 0.633 | 0.436 | 0.374 | 0.253 | 0.358 | 0.69 | 0.715 | 0.66 | 0.678 | 0.708
13 | NCI-H2126 | 0.759 | 0.704 | 0.679 | 0.759 | 0.742 | 0.86 | 0.881 | 0.934 | 0.9 | 0.898 | 0.76 | 0.655 | 0.585 | 0.773 | 0.579 | 0.754 | 0.574 | 0.758 | 0.855 | 0.686
14 | NCI-H2228 | 1.3 | 0.912 | 0.906 | 0.992 | 0.51 | 0.144 | 0.166 | 0.159 | 0.129 | 0.114 | 0.57 | 0.44 | 0.515 | 0.575 | 0.538 | 0.394 | 0.301 | 0.291 | 0.315 | 0.364
15 | NCI-H2347 | 0.981 | 0.927 | 0.93 | 0.447 | 0.48 | 0.33 | 0.295 | 0.372 | 0.409 | 0.575 | 0.459 | 0.426 | 0.4 | 0.476 | 0.36 | 0.424 | 0.474 | 0.47 | 0.422 | 0.473
16 | NCI-H2405 | 0.955 | 0.568 | 0.417 | 0.31 | 0.263 | 0.624 | 0.586 | 0.664 | 0.702 | 0.649 | 0.625 | 0.612 | 0.585 | 0.627 | 0.508 | 1.1 |  | 1.16 | 1.14 | 1.07
17 | NCI-H3122 | 1.04 | 0.985 | 0.991 | 1 | 0.934 | 0.0805 | 0.0865 | 0.0952 | 0.0621 | 0.0807 | 0.954 | 0.809 | 0.921 | 0.887 | 0.902 | 0.195 | 0.213 | 0.209 | 0.208 | 0.264
